Test results reported in the supplement of paper PMC4862054.

Legend:
Test in all cases: drug sensitivity score (DSS), CellTiter-Blue viability (DSS (AUC-based score)); higher = stronger viability inhibition; extreme values may be limits of the assay
Settings in all cases: incubation time: 72 h
CAL-85-1 = test system: CAL-85-1
Protocol: (§1)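 DSRT with the CellTiter-Blue (resazurin reduction) viability readout, fluorescence 560/590 nm, 72 h incubation. Plates were normalised to DMSO and benzethonium chloride controls. DSS is computed from the area under the fitted dose-response curve (5 or 9 concentrations).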

Hs578T = test system: Hs578T
Protocol: as §1

HCC1599 = test system: HCC1599
Protocol: as §1

SMILES | drug sensitivity score (CAL-85-1) | drug sensitivity score (Hs578T) | drug sensitivity score (HCC1599)
Clc1ccc(C(c2ccccc2Cl)C(Cl)Cl)cc1 (stereo not given) [Mitotane] | 0 | 0 | 0
COc1cccc2cc(-c3nc([C@H]4CC[C@H](C(=O)O)CC4)n4ncnc(N)c34)[nH]c12 [OSI-027] | 9.36 | 9.33 | 5.99
OC[C@H]1O[C@@H](n2cnc3c2N=CNC[C@H]3O)C[C@@H]1O [Pentostatin] | 0 | 0 | 0
N#CC[C@H](C1CCCC1)n1cc(-c2ncnc3[nH]ccc23)cn1 [Ruxolitinib] | 0 | 0 | 0
C=CC[C@@H]1/C=C(\C)C[C@H](C)C[C@H](OC)[C@H]2O[C@@](O)(C(=O)C(=O)N3CCCC[C@H]3C(=O)O[C@H](/C(C)=C/[C@@H]3CC[C@@H](O)[C@H](OC)C3)[C@H](C)[C@@H](O)CC1=O)[C@H](C)C[C@@H]2OC [Tacrolimus] | 0 | 0 | 0
C=CCNC1=C2C[C@@H](C)C[C@H](OC)[C@H](O)[C@@H](C)/C=C(\C)[C@H](OC(N)=O)[C@@H](OC)/C=C\C=C(/C)C(=O)NC(=CC1=O)C2=O [Tanespimycin] | 15.7 | 20.5 | 16.3
CO[C@H]1C[C@@H]2CC[C@@H](C)[C@@](O)(O2)C(=O)C(=O)N2CCCC[C@H]2C(=O)O[C@H]([C@H](C)C[C@@H]2CC[C@@H](OC(=O)C(C)(CO)CO)[C@H](OC)C2)CC(=O)[C@H](C)/C=C(\C)[C@@H](O)[C@@H](OC)C(=O)[C@H](C)C[C@H](C)/C=C/C=C/C=C/1C [Temsirolimus] | 14.7 | 17.3 | 0
C[C@]1(c2nc3c(C(N)=O)cccc3[nH]2)CCCN1 [Veliparib] | 0 | 0 | 0
CC[C@]1(O)C[C@@H]2CN(CCc3c([nH]c4ccccc34)[C@@](C(=O)OC)(c3cc4c(cc3OC)N(C)[C@H]3[C@@](O)(C(=O)OC)[C@H](OC(C)=O)[C@]5(CC)C=CCN6CC[C@]43[C@@H]65)C2)C1 [Vinblastine] | 17.8 | 30.7 | 7.99
CS(=O)(=O)c1ccc(C(=O)Nc2ccc(Cl)c(-c3ccccn3)c2)c(Cl)c1 [Vismodegib] | 0 | 0 | 0
